No end group written: not given here.
Legend:
HIV-1IIIB = test: HIV-1 antiviral assay in CEM-SS cells (MTS readout); format: cell-based
HCMV strain AD169 = test: HCMV plaque formation assay in MRC-5 cells
[1] = test system: hepatitis B virus (HBV) ayw strain; test: HBV experimental assay system (secreted HBV DNA, TaqMan PCR); format: cell-based; conditions: 10 micrograms per ml; HepG2-2.2.15 cells; six days
A549 cells = test: Apoptosis prevention assay (C2 ceramide, Annexin-5); format: cell-based, human; conditions: 10 micrograms per ml, 30 min pretreatment
Procedure: Human A549 cells (carcinomic human alveolar basal epithelial cells) were utilized in the experiments employing the Annexin-5 apoptosis assay. […] A549 cells were pretreated for 30 min with test peptides—10 micrograms per ml—followed by the exposure to C2 ceramide.

TNF-a spleen cells = test: Th1/Th2 cytokine profiling assay, TNF-a; format: cell-based, Balb/c mice; conditions: 10 micrograms per ml; Ovalbumin restimulation; 72 hours
Source text: (§1) The Balb/c mice (originated in 1923, it is a popular strain and is used in many different research disciplines. Also classified as an inbred from the production of 20 or more successive brother-sister matings, the Balb/c mouse is albino and small in size) were immunized on Days 1, 15, and 29 with Ovalbumin (Ovalbumin is the main protein found in egg white, commonly used to stimulate an immunological reaction in test animals) in PBS (5 micrograms/injection). On day 50, spleens of the mice were harvested (3 weeks after last boost with Ovalbumin). […] Thereafter, additional Ovalbumin was added to the cells at 10 micrograms/ml for in vitro restimulation of the cells. 72 hours later, cell supernatants were harvested and assayed using the Becton Dickinson Mouse Th1/Th2 Cytokine CBA Kit.

IFNγ spleen cells = test: Th1/Th2 cytokine profiling assay, IFNγ; format: cell-based, Balb/c mice; conditions: 10 micrograms per ml; Ovalbumin restimulation; 72 hours
Source text: as §1

IL-2 spleen cells = test: Th1/Th2 cytokine profiling assay, IL-2; format: cell-based, Balb/c mice; conditions: 10 micrograms per ml; Ovalbumin restimulation; 72 hours
Source text: as §1

IL-4 spleen cells = test: Th1/Th2 cytokine profiling assay, IL-4; format: cell-based, Balb/c mice; conditions: 10 micrograms per ml; Ovalbumin restimulation; 72 hours
Source text: as §1

IL-5 spleen cells = test: Th1/Th2 cytokine profiling assay, IL-5; format: cell-based, Balb/c mice; conditions: 10 micrograms per ml; Ovalbumin restimulation; 72 hours
Source text: as §1

RAW 264.7 cells = test: Phagocytosis assay (Fluorescein-labeled Escherichia coli, flow cytometry); conditions: 10 micrograms per ml

Row | Molecule | antiviral activity of positive control compounds (HIV-1) (HIV-1IIIB) | antiviral activity of positive control compound (HCMV) (HCMV strain AD169) | inhibition of HBV replication as compared to the virus control infection [1] | prevention (reduction) of ceramide-induced apoptosis on human lung cells (A549 cells) [%] | TNF-a spleen cells; TH1 response (% of control) (TNF-a spleen cells) | IFNγ spleen cells; TH1 response (% of control) (IFNγ spleen cells) | IL-2 spleen cells (% of control) (IL-2 spleen cells) | IL-4 spleen cells; TH2 response (% of control) (IL-4 spleen cells) | IL-5 spleen cells; TH2 response (% of control) (IL-5 spleen cells) | increase of the phagocytic activity of murine macrophages (RAW 264.7 cells) [%]
1 | Cc1cn([C@H]2C[C@H](N=[N+]=[N-])[C@@H](CO)O2)c(=O)[nH]c1=O [AZT] | expected levels of antiviral activity | – | – | – | – | – | – | – | – | –
2 | Nc1nc(O)c2ncn(COC(CO)CO)c2n1 [Ganciclovir] | – | expected levels of antiviral activity | – | – | – | – | – | – | – | –
3 | CC(C)(C)NC(=O)[C@@H]1CN(Cc2cccnc2)CCN1C[C@@H](O)C[C@@H](Cc1ccccc1)C(=O)N[C@H]1c2ccccc2C[C@H]1O [indinavir] | expected levels of antiviral activity | – | – | – | – | – | – | – | – | –
4 | Arg-Pro-Lys-Pro-Gln-Gln-Phe-Phe-Gly-Leu-Met-NH2 (RPKPQQFFGLM-NH2) [Peptide 1] | – | – | 30.2% | 10.9 | 101.0 % of control | 136.4 % of control | 113.6 % of control | 106.2 % of control | 64.0 % of control | 28.6
5 | Pyr-His-Pro-NH2 [Peptide 2] | – | – | no effect | 17.2 | 110.7 % of control | 102.0 % of control | 0.0 % of control | 106.2 % of control | 67.5 % of control | 31.4
